21 molecules from PubChem BioAssay AID504356 (Broad Institute, 2011) can be followed below.

Calls of active or inactive are those of the source.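 How the source made its calls: active means curve reaching 10% of positive control caspase signal at or below the top valid tested dose; inactive means opposite-direction activity, or no crossing across tested range.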

Assay [1] relates to MEWO A1-expressing, TSA primed, caspase-Glo luminescence, 3 h. Briefly: caspase-Glo signal rise in Trichostatin-treated MEWO cells – cell-based, Trichostatin A primed, luminescence, set 2, orthogonal assay for A1 inhibitor project, dose response (AID 504356).
Experiment in assay [2]: as above
Conditions: MEWO A1-expressing, TSA primed, caspase-Glo luminescence, 3 h, active compounds read high.

`O=[N+]([O-])c1cnc2ccccc2c1Sc1ccccc1`: in assay [1], the AC10 is > 30 µM (inactive).
For the molecule `Cn1c(=O)c([N+](=O)[O-])c(Nc2ccc(Cl)cc2)c2ccccc21`, the max caspase activation in assay [2] (at 0.235 µM) is 3.04% (inactive).
Turning to `Cc1ccc(Sc2cc(=O)n(C)c3ccccc23)cc1`, the max caspase activation in assay [2] (at 30 µM) was -5.85% (inactive).
Regarding `C/C1=C/C(=O)O[C@@H]2C[C@@H](CC[C@H](C)/C=C\CC1)O[C@@](O)(C1CSC(=O)N1)C2` (stereo partly specified), the max caspase activation in assay [2] (at 30 µM) was 2.64% (inactive).
Consider `CN1C(=O)C(C)(C)N(Cc2ccccc2)c2ccccc21`, for which the max caspase activation in assay [2] (at 16 µM) was -0.643% (inactive).
With `O=c1oc2ccccc2c(Nc2cc(Cl)cc(Cl)c2)c1[N+](=O)[O-]`, the max caspase activation in assay [2] (at 0.12 µM) was 2.71% (inactive).
Regarding `Cc1ccc(Sc2c([N+](=O)[O-])c(=O)n(C)c3ccccc23)cc1`, the AC10 in assay [1] was > 30 µM (inactive).
Turning to `O=C(Oc1cccc(/C=N/Nc2nc(Nc3ccccc3)nc(N3CCOCC3)n2)c1)c1ccco1`, the max caspase activation in assay [2] (at 3.8 µM) is 2.46% (inactive).
Consider `Cc1ccc(Sc2c([N+](=O)[O-])cnc3ccccc23)cc1`, for which the AC10 in assay [1] is 24.9 µM.
`O=c1oc2ccccc2c(Cl)c1[N+](=O)[O-]`: the max caspase activation in assay [2] (at 30 µM) was -5.13% (inactive).
As to `Cn1c(=O)c([N+](=O)[O-])c(-n2cnc3ccccc32)c2ccccc21`, the AC10 in assay [1] was > 30 µM (inactive).
Turning to `Cc1ccc(Nc2c([N+](=O)[O-])c(=O)n(C)c3ccccc23)cc1`, in assay [2] (at 0.5 µM), the max caspase activation was 1.48% (inactive).
In the case of `Cc1ccc(Sc2c([N+](=O)[O-])c(=O)oc3ccccc23)cc1`, the max caspase activation in assay [2] (at 16 µM) was -4.17% (inactive).
On to `Cc1ccc(Nc2c([N+](=O)[O-])c(=O)oc3ccccc23)cc1`, for which the max caspase activation in assay [2] (at 16 µM) was 1.85% (inactive).
For the molecule `Cn1c(=O)c([N+](=O)[O-])c(Cl)c2ccccc21`, the max caspase activation in assay [2] (at 8 µM) is 9.18% (inactive).
Still for that read-out and setting: then `CCOCCCNc1c([N+](=O)[O-])c(=O)n(C)c2ccccc12`, with 1.97% (inactive).
The same measure, in the same setting: with `CCSc1c([N+](=O)[O-])c(=O)oc2ccccc12` the figure was 2.46% (inactive); with `CCOC(=O)N1CCN(c2c([N+](=O)[O-])c(=O)n(C)c3ccccc23)CC1`, 0.764% (inactive).
For the molecule `O=c1oc2ccccc2c(Sc2ccccc2)c1[N+](=O)[O-]`, the max caspase activation in assay [2] (at 30 µM) is -5.41% (inactive).
Turning to `O=c1oc2ccccc2c(N2CCCCC2)c1[N+](=O)[O-]`, the max caspase activation in assay [2] (at 0.235 µM) is -1.97% (inactive).
`Cn1c(=O)c([N+](=O)[O-])c(Oc2ccccc2)c2ccccc21`: in assay [2] (at 30 µM), the max caspase activation was 2.08% (inactive).
